PubChem BioAssay (NCI)
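How tested: cells in 96-well plates exposed to compound for 48 hours at five concentrations. Abbreviation: GI50, concentration required for 50% inhibition of growth. Definition used: TGI = concentration required for complete inhibition of growth.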

Columns and labels:
Assay in all cases: NCI tumour cell line growth inhibition, 48 h
CCRF-CEM leukemia = tested on: CCRF-CEM leukemia
DU-145 prostate = tested on: DU-145 prostate
HOP-62 NSCLC = tested on: HOP-62 NSCLC
HS 578T breast = tested on: HS 578T breast
MALME-3M melanoma = tested on: MALME-3M melanoma
NCI/ADR-RES ovarian = tested on: NCI/ADR-RES ovarian
RPMI-8226 leukemia = tested on: RPMI-8226 leukemia
SN12C renal = tested on: SN12C renal
SNB-19 CNS = tested on: SNB-19 CNS
UACC-257 melanoma = tested on: UACC-257 melanoma

Row | SMILES | TGI (CCRF-CEM leukemia) | TGI (DU-145 prostate) | TGI (HOP-62 NSCLC) | TGI (HS 578T breast) | TGI (MALME-3M melanoma) | TGI (NCI/ADR-RES ovarian) | TGI (RPMI-8226 leukemia) | TGI (SN12C renal) | TGI (SNB-19 CNS) | TGI (UACC-257 melanoma) | GI50 (CCRF-CEM leukemia) | GI50 (DU-145 prostate) | GI50 (HOP-62 NSCLC) | GI50 (HS 578T breast) | GI50 (MALME-3M melanoma) | GI50 (NCI/ADR-RES ovarian) | GI50 (RPMI-8226 leukemia) | GI50 (SN12C renal) | GI50 (SNB-19 CNS) | GI50 (UACC-257 melanoma)
1 | C=C1C(=O)O[C@@H]2C[C@@]3(C)CCC[C@H](C)C3=C[C@H]12 (tested in a mixture with another compound) | > 100 µM | 8.67 µM | 7.74 µM | 17.3 µM | 2.42 µM | 5.2 µM | 4.05 µM | 3.44 µM | 22.4 µM | 3.75 µM |  |  |  |  |  |  |  |  |  | 
2 | COc1ccc(-c2cc(=O)c3c(C)ccnc3[nH]2)cc1 | 44.8 µM | > 100 µM | 92.4 µM | 77.1 µM | 65.2 µM | > 100 µM | 53 µM | > 100 µM | > 100 µM | > 100 µM |  |  |  |  |  |  |  |  |  | 
3 | CCCN1CCC(Oc2cc(Nc3nc(Nc4cccc(F)c4C(N)=O)c4cc[nH]c4n3)c(OC)cc2Cl)CC1 | 10.1 µM | 7.76 µM | 4.36 µM | 10.6 µM | 8.4 µM | 8.57 µM | 6.35 µM | 7.99 µM | 8.33 µM | 6.75 µM | 3.45 µM | 3.68 µM | 1.31 µM | 3.73 µM | 3.81 µM | 3.73 µM | 2.11 µM | 3.97 µM | 4.18 µM | 3.28 µM
4 | N#Cc1nc2cc(Cl)c(Cl)cc2nc1-c1ccc(Cl)cc1 | 25.7 µM | > 100 µM | 41.6 µM | 70.2 µM | > 100 µM | > 83.4 µM | > 100 µM | > 78.6 µM | > 60.6 µM | > 100 µM | 8.61 µM | 49.6 µM | 21 µM | 17.1 µM | > 42.2 µM | > 42.2 µM | 24.3 µM | 28.5 µM | > 43.4 µM | 97.4 µM
5 | COC1C(OC(=O)/C=C/C=C/C=C/C=C/C(=O)O)CCC2(CO2)C1C1(C)OC1CC=C(C)C (stereo unspecified) | 78.1 µM | > 100 µM | > 100 µM | > 100 µM | > 75.3 µM | 97.7 µM | 78.6 µM |  | > 100 µM | > 84.2 µM | 0.386 µM | 0.651 µM | 0.198 µM |  | 0.45 µM |  | 0.165 µM | 0.225 µM | 0.277 µM | 0.489 µM
6 | CCN(Cc1ccccc1)c1ccc(/C=C2\COc3ccccc3C2=O)cc1 | > 1000 µM | > 1000 µM | > 1000 µM | > 1000 µM | > 1000 µM | > 1000 µM | > 1000 µM | > 1000 µM | > 1000 µM | > 1000 µM | 73.5 µM | > 1000 µM | > 1000 µM | > 1000 µM | > 1000 µM | 351 µM | 146 µM | > 1000 µM | > 1000 µM | > 1000 µM
7 | CN1CCN(CCCOC(=O)c2c3c(n4ccccc24)C(=O)c2ncccc2C3=O)CC1 | > 30.4 µM | 1.3 µM | 0.0393 µM | 1.15 µM | 1.14 µM | 12.9 µM |  | 0.294 µM | 1.45 µM | 1.3 µM | 0.041 µM | < 0.01 µM | < 0.01 µM | < 0.0268 µM | 0.0265 µM | < 0.0107 µM | 0.0653 µM | < 0.01 µM | < 0.01 µM | 0.0219 µM
